Test results published in patent publication US20120321584A1, “PROCESSES FOR PREPARING AMINE SALTS OF KMUP-3 AND USE THEREOF” (KAOHSIUNG MEDICAL UNIVERSITY, priority 2011, published 2012).

Tests used:
[1] = test system: electrically-stimulated left atria; experiment: Electrically-stimulated beating left atrium, organ bath; format: cell-based, guinea-pig; details: for Effect of pretreatment on KMUP-3-induced positive inotropic activity: propranolol and Y27632 1 μM, C3 exoenzyme 50 μg/mL, ketanserin 1.0 μM, L-NAME 100 μM
Description: (§1) Organ bath experiments and tissue procurement. Guinea-pigs were killed by a blow on the head. Their hearts were quickly excised and trimmed of excess tissues. The atrium was carefully removed and placed at room temperature (20˜25° C.) in a Krebs solution of the following composition (mM): NaCl 113, KCl 4.8, CaCl2 2.2, KH2PO4 1.2, MgCl2 1.2, NaHCO3 25, dextrose 11.0; bubbled with a 95% O2+5% CO2 mixture, followed by separation of right and left atrium for subsequent experiments.
Quiescent left atria free of connective tissues were dissected and mounted in an organ bath under a resting tension of 0.5 g. Organs were bathed at 32.5° C. in aerated Krebs solution and electrically stimulated with 1 Hz at […] via two platinum electrodes placed at either side. The positive inotropic effect was measured by determining the cumulative concentration-response curves in the presence of KMUP-3 or KMUP-3 amine salt (0.1, 1.0, 10, 100 μM). To examine the possible involvement of NO and cAMP/cGMP in the action of KMUP-3 or KMUP-3 amine salt on electrically-stimulated beating atria, pre-incubated with a ROCK inhibitor Y27632 (1.0 μM), a β-adrenoceptor blocker propranolol (1.0 μM), eNOS inhibitors L-NAME (100 μM), 7-nitroindazole (100 μM) and 5-HT inhibitor ketanserin (1.0 μM) was performed for 15 min prior to the addition of KMUP-3 or KMUP-3 amine salt to measure the development of beating force and heart rate for 10 min.

[2] = Hemodynamic measurements in anesthetized rats (LVSP, dP/dt, MABP, HR); format: in vivo, Wistar rats; details: intravenous pretreatment at 1 mg/kg; KMUP-3 1 mg/kg, i.v.
Description: Hemodynamic measurements were carried out in male Wistar rats weighting 300˜350 g, anesthetized with pentobarbital sodium (40 mg kg^−1, i.p.). In brief, polyethylene tubing (PE50) was placed in the trachea to keep the airway patent, and rats continued to breathe spontaneously. Subsequently, rats were used to record hemodynamic and cardiovascular function. Vascular catheters (PE50) were placed in the femoral arteries to measure mean arterial blood pressure (MABP) and heart rate (HR). Changes of MABP and HR caused by KMUP-3 or KMUP-3 amine salt were recorded from the femoral artery with a pressure transducer (Gould, Model P50, U.S.A.), connected with a Pressure Processor Amplifier (Gould, Model 13-4615-52, U.S.A.). A femoral vein was used for intravenous administration of KMUP-3 or KMUP-3 amine salt. A specialized transducer tip catheter was placed in the right carotid artery and advanced into the left ventricle of the heart for measurement of left ventricular pressure (LVSP) or contractility; dP/dt at 50 mm Hg, an index of cardiac contractility, was derived from the left ventricular pressure trace; post-hoc vascular resistance was calculated as mean arterial blood pressure/peripheral cardiac output (MABP/PCO). Body temperature was monitored throughout the experiment and maintained between 37 and 37.5° C. by using a heating pad.
Each dose of active drugs was administered as a 20-min infusion in a series of escalating doses dissolved in a 5% dextrose water vehicle. […] KMUP-3 HCl or KMUP-3 amine salt were infused at 0.03, 0.05, and 0.075 μg/kg/20 min for the measurement of FABP, intraperitoneally injected at 0.03, 0.05 and 0.1 mg/kg for the measurement of MABP and HR and infused by intravenous injection for 2 min at 0.5, 1.0, 3.0 mg/kg dissolved in 5% dextrose water vehicle (2 ml) for the measurement of LV systolic pressure (LVSH), ABP, dP/dt, and HR. The primary hemodynamic variables were computed using commercial software and a signal processing workstation. Animals were randomly divided into one of six treatment or vehicle groups. After the completion of the surgical protocol, animals were allowed to stabilize for 1 h, and baseline data were collected at 5-min intervals for 30 min before the treatment.

[3] = test system: isolated spontaneously beating right atrium; experiment: Spontaneously beating right atrium, organ bath; format: cell-based, guinea-pig; details: for Effect of pretreatment on the beating frequency decreased by KMUP-3: atropine 1 μM, 7-nitroindazole 100 μM
Description: as §1
Spontaneously beating right atrium was dissected from the heart and mounted in a 10 ml organ bath with one end fixed and the other end connected to a force displacement transducer (Grass, Model FT03). The frequency of contraction was measured on a separate channel by a tachometer (Coulbourn, Model S77-26) connected to a high-speed videograph (Coulbourn, AT L19-69). These experiments were carried out at 32.5° C. in Krebs solution. The atria strip was pre-stretched to a baseline tension of 0.5 g and equilibrated for 90 min in aerated (95% O2+5% CO2) Krebs solution before the experimental protocols were initiated. The atria were then allowed a 30-60 min washout period to re-stabilize. KMUP-3 or KMUP-3 amine salt (0.1, 1.0, 10, 100 μM) were then cumulatively added to the organ bath. […]

PKG = PKG expression in beating left atrium, Western blotting; format: cell-based, guinea-pig; details: L-NAME pretreatment
Description: (§2) Protein extraction and Western blotting analysis. Briefly, after incubation with test agents in an organ bath, isolated beating atrium was frozen and pulverized to a fine powder at the temperature of liquid nitrogen. Atrium powders were then homogenized in protein extraction reagent (Pierce Biotechnology, Inc., Rockford, Ill.) by sonication. The samples were sonicated 10 sec three times and centrifuged at 13,000 rpm at 4° C. for 30 min. The protein concentrations of supernatants were determined by using bovine serum albumin as the standard. The cell extracts were then boiled in a ratio of 4:1 with sample buffer (Tris 100 mM, pH 6.8; glycerol 20%, Sodium dodecyl sulfate (SDS) 4% and bromophenol blue 0.2%). Electrophoresis was performed using 10% SDS-PAGE and transferred to nitrocellulose membranes (Millipore Corp., Billerica, Mass.). […] The intensity of the bands was measured by densitometry. eNOS or phosphorylated eNOS were extracted from cell culture of neonatal myocytes, PA ring and aortic ring (2-3 mm) of rats and measured by Western blotting analysis.
PK, ROCKII and CIP-17 expression and pretreatment of beating left atrium. To examine whether KMUP-3 or KMUP-3 amine salt affects the protein expression in beating atrium, PKA, ROCKII, PKG and phosphorylated CIP-17 was determined by Western blotting, respectively. […]

[4] = test system: phosphorylated eNOS (p-eNOS); experiment: Phosphorylated eNOS expression in neonatal myocytes, Western blotting; format: cell-based, rat; details: L-NAME 100 μM pretreatment
Description: (§3) eNOS/p-NOS and cAMP/cGMP in neonatal myocytes. To determine the role of the NO/cGMP-pathway in heart, neonatal rat myocyte protein was extracted followed by Western blotting to measure the expression of eNOS, phosphorylated eNOS (p-eNOS), cAMP, and cGMP (FIG. 14 A-14 B and FIG. 15 A-15 B). KMUP-3 increased eNOS and p-eNOS in neonatal rat cardiomyocytes and the effect was reduced by L-NAME (100 μM)-pretreatment (FIG. 14A and FIG. 14B). KMUP-3 increased both cAMP and cGMP.
as §2, with “standard.” for “standard. The cell extracts were then boiled in a ratio of 4:1 with sample buffer (Tris 100 mM, pH 6.8; glycerol 20%, Sodium dodecyl sulfate (SDS) 4% and bromophenol blue 0.2%). Electrophoresis was performed using 10% SDS-PAGE and transferred to nitrocellulose membranes (Millipore Corp., Billerica, Mass.).”

eNOS = eNOS expression in neonatal myocytes, Western blotting; format: cell-based, rat; details: L-NAME 100 μM pretreatment
Description: as §3
as §2, with “standard.” for “standard. The cell extracts were then boiled in a ratio of 4:1 with sample buffer (Tris 100 mM, pH 6.8; glycerol 20%, Sodium dodecyl sulfate (SDS) 4% and bromophenol blue 0.2%). Electrophoresis was performed using 10% SDS-PAGE and transferred to nitrocellulose membranes (Millipore Corp., Billerica, Mass.).”

[5] = test system: electrically-stimulated left atria; experiment: Electrically-stimulated beating left atrium, organ bath; format: cell-based, guinea-pig; details: 0.1~30 μM, electrical stimulation 1 Hz

Question: What does the source list for `CC(C)NCC(O)COc1cccc2ccccc12` (stereo not shown) [propranolol, reference compound]?
Answer: Effect of pretreatment on KMUP-3-induced positive inotropic activity [1]: reduced; Effect of pretreatment on the effects (LVSP, dP/dt, MABP) induced by KMUP-3 [2]: inhibited

Question: For `CN1[C@@H]2CC[C@H]1C[C@@H](OC(=O)C(CO)c1ccccc1)C2` (stereo partly shown) [atropine], which “Effect of pretreatment on the beating frequency decreased by KMUP-3” value [3] is on record?
Answer: Its value is “up-regulated”.

Question: Which “Effect of combination on left atria contractility increased by KMUP-3” value ([1]; KMUP-3 10 μM with 7-nitroindazole 100 μM) does the source give for `O=[N+]([O-])c1cccc2cn[nH]c12` [7-nitroindazole] here?
Answer: The value was “reduced”.

Question: And the “Effect of pretreatment on the beating frequency decreased by KMUP-3” value [3]?
Answer: The value was “up-regulated”.

Question: For `COC(=O)[C@@H](N)CCCNC(=N)N[N+](=O)[O-]` [L-NAME], which “Effect of pretreatment on KMUP-3-induced positive inotropic activity” value [1] is on record?
Answer: The value was “reduced”.

Question: What about the “Effect of pretreatment on KMUP-3-induced contractility” value ([1]; sGC inhibitor ODQ, eNOS inhibitor L-NAME) of the same compound?
Answer: Its value is “inhibited”.

Question: And the “Effect of pretreatment on expression of PKG” value (PKG)?
Answer: The value was “reduced”.

Question: And the “Effect of pretreatment on KMUP-3-increased p-eNOS” value [4]?
Answer: Its value is “reduced”.

Question: And the “Effect of pretreatment on KMUP-3-increased eNOS” value (eNOS)?
Answer: The value was “reduced”.

Question: Which results are given for `Cc1[nH]c(=O)c(C#N)cc1-c1ccncc1` [milrinone]?
Answer: Chronotropic effect (beating frequency) ([3]; 0.1-30 μM): increased; Inotropic effect (contraction force) ([3]; 0.1-30 μM): increased; Left atrium contractility [5]: concentration-dependently increased
